Measured values as given in ChEMBL document CHEMBL4507302, “Data for DCP probe TP-020” (2021).

Legend:
[1] = molecular target: Hepatocyte growth factor receptor (Homo sapiens) (UniProt P08581); details: Compound concentration 1000.0 nM
[2] = system: Receptor-type tyrosine-protein kinase FLT3 (Homo sapiens), P36888 [D835V]; details: Compound concentration 1000.0 nM
[3] = molecular target: Calcium-dependent protein kinase 1 (Plasmodium falciparum) (UniProt P62344); details: Compound concentration 1000.0 nM
[4] = molecular target: LIM domain kinase 1 (Homo sapiens) (UniProt P53667); details: Compound concentration 1000.0 nM
LIM domain kinase 1 (Homo sapiens), sequence (P53667 whole entry, looked up, the tested form may be a part): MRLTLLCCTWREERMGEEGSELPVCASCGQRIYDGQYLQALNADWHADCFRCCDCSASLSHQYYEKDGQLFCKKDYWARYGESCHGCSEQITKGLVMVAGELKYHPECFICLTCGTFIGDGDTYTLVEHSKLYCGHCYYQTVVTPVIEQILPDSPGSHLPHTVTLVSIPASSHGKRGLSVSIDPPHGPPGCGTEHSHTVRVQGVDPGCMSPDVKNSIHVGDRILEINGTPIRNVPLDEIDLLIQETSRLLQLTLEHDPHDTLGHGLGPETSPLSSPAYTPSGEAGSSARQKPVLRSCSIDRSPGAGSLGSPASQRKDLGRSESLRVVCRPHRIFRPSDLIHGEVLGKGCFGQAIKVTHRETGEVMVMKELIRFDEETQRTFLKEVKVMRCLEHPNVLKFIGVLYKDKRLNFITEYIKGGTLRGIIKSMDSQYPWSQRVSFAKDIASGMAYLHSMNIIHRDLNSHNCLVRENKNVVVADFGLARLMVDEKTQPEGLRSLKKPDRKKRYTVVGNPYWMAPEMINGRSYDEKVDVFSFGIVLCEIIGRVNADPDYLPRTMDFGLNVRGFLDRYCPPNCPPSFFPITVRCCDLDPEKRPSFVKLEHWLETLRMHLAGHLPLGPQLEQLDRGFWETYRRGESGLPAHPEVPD

[5] = molecular target: 5-hydroxytryptamine receptor 5A (Homo sapiens) (UniProt P47898); details: Compound concentration 10.0 uM
5-hydroxytryptamine receptor 5A (Homo sapiens), sequence (P47898 whole entry): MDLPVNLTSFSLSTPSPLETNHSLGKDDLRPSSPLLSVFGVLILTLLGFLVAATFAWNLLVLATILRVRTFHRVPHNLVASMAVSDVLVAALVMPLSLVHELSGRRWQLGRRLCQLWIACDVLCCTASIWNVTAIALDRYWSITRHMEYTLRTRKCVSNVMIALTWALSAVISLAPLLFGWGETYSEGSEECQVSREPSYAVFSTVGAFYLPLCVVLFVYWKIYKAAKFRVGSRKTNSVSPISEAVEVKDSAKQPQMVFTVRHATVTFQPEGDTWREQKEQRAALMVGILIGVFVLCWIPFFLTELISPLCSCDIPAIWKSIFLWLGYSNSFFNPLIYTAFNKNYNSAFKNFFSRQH

[6] = molecular target: D(2) dopamine receptor (Homo sapiens) (UniProt P14416); details: Compound concentration 10.0 uM
[7] = molecular target: Activin receptor type-1B (Homo sapiens) (UniProt P36896); details: Compound concentration 1000.0 nM
[8] = molecular target: Serine/threonine-protein kinase 25 (Homo sapiens) (UniProt O00506); details: Compound concentration 1000.0 nM
[9] = molecular target: Serine/threonine-protein kinase BRSK2 (Homo sapiens) (UniProt Q8IWQ3); details: Compound concentration 1000.0 nM
[10] = molecular target: cAMP-dependent protein kinase catalytic subunit beta (Homo sapiens) (UniProt P22694); details: Compound concentration 1000.0 nM
[11] = molecular target: Calcium/calmodulin-dependent protein kinase type II subunit alpha (Homo sapiens) (UniProt Q9UQM7); details: Compound concentration 1000.0 nM
[12] = molecular target: Wee1-like protein kinase (Homo sapiens) (UniProt P30291); details: Compound concentration 1000.0 nM
[13] = molecular target: Cyclin-dependent kinase 11B (Homo sapiens) (UniProt P21127); details: Compound concentration 1000.0 nM
[14] = molecular target: Interleukin-1 receptor-associated kinase 3 (Homo sapiens) (UniProt Q9Y616); details: Compound concentration 1000.0 nM
[15] = system: Tyrosine-protein kinase ABL1 (Homo sapiens), P00519 [T315I]; details: Compound concentration 1000.0 nM
[16] = molecular target: Serine/threonine-protein kinase 32C (Homo sapiens) (UniProt Q86UX6); details: Compound concentration 1000.0 nM
[17] = system: Mast/stem cell growth factor receptor Kit (Homo sapiens), P10721 [A829P]; details: Compound concentration 1000.0 nM
[18] = molecular target: Cyclin-dependent kinase 14 (Homo sapiens) (UniProt O94921); details: Compound concentration 1000.0 nM
[19] = system: Tyrosine-protein kinase ABL1 (Homo sapiens), P00519 [F317I]; details: Compound concentration 1000.0 nM
[20] = molecular target: Tyrosine-protein kinase Fyn (Homo sapiens) (UniProt P06241); details: Compound concentration 1000.0 nM
[21] = molecular target: 5-hydroxytryptamine receptor 1B (Homo sapiens) (UniProt P28222); details: Compound concentration 10.0 uM
[22] = molecular target: Serine/threonine-protein kinase PknB (Mycobacterium tuberculosis) (UniProt P9WI81); details: Compound concentration 1000.0 nM
[23] = molecular target: Mitogen-activated protein kinase kinase kinase 11 (Homo sapiens) (UniProt Q16584); details: Compound concentration 1000.0 nM
Mitogen-activated protein kinase kinase kinase 11 (Homo sapiens), sequence (Q16584 whole entry, looked up): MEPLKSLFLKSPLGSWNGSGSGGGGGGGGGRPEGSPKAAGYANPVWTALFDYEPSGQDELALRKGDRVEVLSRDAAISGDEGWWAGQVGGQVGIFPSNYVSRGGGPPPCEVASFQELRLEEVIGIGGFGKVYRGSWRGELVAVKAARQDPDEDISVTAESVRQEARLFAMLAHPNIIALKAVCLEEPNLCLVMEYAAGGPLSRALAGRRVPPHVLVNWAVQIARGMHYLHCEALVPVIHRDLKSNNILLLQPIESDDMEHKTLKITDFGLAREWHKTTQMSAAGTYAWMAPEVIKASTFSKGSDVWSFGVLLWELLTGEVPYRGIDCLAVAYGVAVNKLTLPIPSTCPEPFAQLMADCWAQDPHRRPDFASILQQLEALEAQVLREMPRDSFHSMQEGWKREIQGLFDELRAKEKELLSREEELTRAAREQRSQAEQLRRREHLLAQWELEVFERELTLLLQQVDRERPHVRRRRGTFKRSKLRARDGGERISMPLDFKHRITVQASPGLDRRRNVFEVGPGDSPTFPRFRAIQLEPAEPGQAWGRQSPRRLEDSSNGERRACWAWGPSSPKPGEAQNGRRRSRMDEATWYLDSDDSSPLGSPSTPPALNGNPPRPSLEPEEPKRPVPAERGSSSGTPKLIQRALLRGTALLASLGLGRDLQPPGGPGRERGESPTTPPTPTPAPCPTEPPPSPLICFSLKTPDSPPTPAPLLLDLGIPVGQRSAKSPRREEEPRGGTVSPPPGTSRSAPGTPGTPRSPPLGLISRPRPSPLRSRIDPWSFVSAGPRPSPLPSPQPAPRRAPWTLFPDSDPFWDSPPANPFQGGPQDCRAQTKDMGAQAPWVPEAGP

[24] = system: Receptor-type tyrosine-protein kinase FLT3 (Homo sapiens), P36888 [UNDEFINED MUTATION]; details: Compound concentration 1000.0 nM
[25] = molecular target: Non-receptor tyrosine-protein kinase TYK2 (Homo sapiens) (UniProt P29597); details: Compound concentration 1000.0 nM
[26] = system: Phosphatidylinositol 4,5-bisphosphate 3-kinase catalytic subunit alpha isoform (Homo sapiens), P42336 [H1047L]; details: Compound concentration 1000.0 nM
[27] = molecular target: Tyrosine-protein kinase CSK (Homo sapiens) (UniProt P41240); details: Compound concentration 1000.0 nM
[28] = system: Receptor-type tyrosine-protein kinase FLT3 (Homo sapiens), P36888 [R834Q]; details: Compound concentration 1000.0 nM
[29] = molecular target: Mitogen-activated protein kinase kinase kinase kinase 2 (Homo sapiens) (UniProt Q12851); details: Compound concentration 1000.0 nM
[30] = molecular target: G protein-coupled receptor kinase 3 (Homo sapiens) (UniProt P35626); details: Compound concentration 1000.0 nM
G protein-coupled receptor kinase 3 (Homo sapiens), sequence (P35626 whole entry): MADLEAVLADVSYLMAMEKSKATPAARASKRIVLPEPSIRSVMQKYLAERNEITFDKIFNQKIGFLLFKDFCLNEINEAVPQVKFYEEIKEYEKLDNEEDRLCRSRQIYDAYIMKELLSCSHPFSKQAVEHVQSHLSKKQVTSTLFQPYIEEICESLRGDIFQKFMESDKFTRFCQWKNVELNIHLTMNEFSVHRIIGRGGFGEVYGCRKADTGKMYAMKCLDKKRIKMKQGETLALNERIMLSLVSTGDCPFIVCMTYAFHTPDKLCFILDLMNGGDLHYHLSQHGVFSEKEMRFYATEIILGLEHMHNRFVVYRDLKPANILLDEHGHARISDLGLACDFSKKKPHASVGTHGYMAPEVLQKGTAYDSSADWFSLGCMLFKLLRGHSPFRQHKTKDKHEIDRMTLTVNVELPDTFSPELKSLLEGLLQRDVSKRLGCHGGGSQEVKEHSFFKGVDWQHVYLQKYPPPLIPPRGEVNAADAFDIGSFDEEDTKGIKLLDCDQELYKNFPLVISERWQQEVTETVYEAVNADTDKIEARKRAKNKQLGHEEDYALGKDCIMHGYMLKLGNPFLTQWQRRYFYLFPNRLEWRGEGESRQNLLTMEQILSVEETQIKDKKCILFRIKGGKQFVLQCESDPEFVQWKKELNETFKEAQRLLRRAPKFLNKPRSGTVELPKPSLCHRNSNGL

[31] = molecular target: Tyrosine-protein kinase Lck (Homo sapiens) (UniProt P06239); details: Compound concentration 1000.0 nM
[32] = molecular target: Serine/threonine-protein kinase MRCK gamma (Homo sapiens) (UniProt Q6DT37); details: Compound concentration 1000.0 nM
[33] = molecular target: Serine/threonine-protein kinase 3 (Homo sapiens) (UniProt Q13188); details: Compound concentration 1000.0 nM
[34] = molecular target: Atypical kinase COQ8B, mitochondrial (Homo sapiens) (UniProt Q96D53); details: Compound concentration 1000.0 nM
[35] = system: Hepatocyte growth factor receptor (Homo sapiens), P08581 [Y1235D]; details: Compound concentration 1000.0 nM
[36] = molecular target: Serine/threonine-protein kinase ICK (Homo sapiens) (UniProt Q9UPZ9); details: Compound concentration 1000.0 nM
[37] = system: Receptor-type tyrosine-protein kinase FLT3 (Homo sapiens), P36888 [D835Y]; details: Compound concentration 1000.0 nM
[38] = molecular target: Muscle, skeletal receptor tyrosine-protein kinase (Homo sapiens) (UniProt O15146); details: Compound concentration 1000.0 nM
[39] = molecular target: Mitotic checkpoint serine/threonine-protein kinase BUB1 (Homo sapiens) (UniProt O43683); details: Compound concentration 1000.0 nM
[40] = system: Tyrosine-protein kinase ABL1 (Homo sapiens), P00519 [F317L]; details: Compound concentration 1000.0 nM
[41] = system: Serine/threonine-protein kinase B-raf (Homo sapiens), P15056 [V600E]; details: Compound concentration 1000.0 nM
[42] = molecular target: Ribosomal protein S6 kinase alpha-5 (Homo sapiens) (UniProt O75582); details: Compound concentration 1000.0 nM
Ribosomal protein S6 kinase alpha-5 (Homo sapiens), sequence (O75582 whole entry, looked up): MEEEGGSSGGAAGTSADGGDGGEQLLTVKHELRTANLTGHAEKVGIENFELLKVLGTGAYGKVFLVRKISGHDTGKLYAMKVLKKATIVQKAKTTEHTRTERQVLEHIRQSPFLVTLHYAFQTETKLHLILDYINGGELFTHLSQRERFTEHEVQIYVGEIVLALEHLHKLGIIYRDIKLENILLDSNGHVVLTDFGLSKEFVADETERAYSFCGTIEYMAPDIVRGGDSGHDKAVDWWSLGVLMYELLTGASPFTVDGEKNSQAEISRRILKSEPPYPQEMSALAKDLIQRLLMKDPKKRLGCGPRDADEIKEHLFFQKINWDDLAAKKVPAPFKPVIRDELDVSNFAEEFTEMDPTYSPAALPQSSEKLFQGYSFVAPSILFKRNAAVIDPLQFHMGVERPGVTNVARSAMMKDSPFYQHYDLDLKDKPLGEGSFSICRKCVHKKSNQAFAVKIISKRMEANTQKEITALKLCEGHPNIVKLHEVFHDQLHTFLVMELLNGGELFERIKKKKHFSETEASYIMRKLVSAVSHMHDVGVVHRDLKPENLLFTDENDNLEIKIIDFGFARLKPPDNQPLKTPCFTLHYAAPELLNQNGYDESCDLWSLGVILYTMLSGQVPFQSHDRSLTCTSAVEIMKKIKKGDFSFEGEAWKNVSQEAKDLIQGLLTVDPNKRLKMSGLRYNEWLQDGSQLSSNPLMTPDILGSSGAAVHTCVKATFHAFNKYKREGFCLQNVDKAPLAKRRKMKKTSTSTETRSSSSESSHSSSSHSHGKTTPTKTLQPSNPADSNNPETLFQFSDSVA

[43] = molecular target: Serine/threonine-protein kinase RIO2 (Homo sapiens) (UniProt Q9BVS4); details: Compound concentration 1000.0 nM
[44] = molecular target: Serine/threonine-protein kinase Chk2 (Homo sapiens) (UniProt O96017); details: Compound concentration 1000.0 nM
Serine/threonine-protein kinase Chk2 (Homo sapiens), sequence (O96017 whole entry): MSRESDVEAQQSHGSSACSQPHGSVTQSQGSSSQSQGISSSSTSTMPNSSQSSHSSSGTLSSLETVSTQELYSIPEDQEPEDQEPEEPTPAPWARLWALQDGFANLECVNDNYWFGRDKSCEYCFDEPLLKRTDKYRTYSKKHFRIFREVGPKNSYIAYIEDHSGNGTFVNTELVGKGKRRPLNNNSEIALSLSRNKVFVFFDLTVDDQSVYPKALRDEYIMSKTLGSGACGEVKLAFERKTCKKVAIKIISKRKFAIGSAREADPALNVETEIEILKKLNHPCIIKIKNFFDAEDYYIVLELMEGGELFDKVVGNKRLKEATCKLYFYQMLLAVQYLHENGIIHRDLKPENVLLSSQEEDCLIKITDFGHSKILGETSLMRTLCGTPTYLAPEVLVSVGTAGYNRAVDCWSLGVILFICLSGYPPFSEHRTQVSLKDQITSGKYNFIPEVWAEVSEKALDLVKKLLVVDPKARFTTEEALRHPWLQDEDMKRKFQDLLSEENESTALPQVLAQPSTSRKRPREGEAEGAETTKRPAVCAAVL

[45] = system: Proto-oncogene tyrosine-protein kinase receptor Ret (Homo sapiens), P07949 [M918T]; details: Compound concentration 1000.0 nM
Proto-oncogene tyrosine-protein kinase receptor Ret (Homo sapiens), P07949 [M918T], sequence (P07949 whole entry M918T): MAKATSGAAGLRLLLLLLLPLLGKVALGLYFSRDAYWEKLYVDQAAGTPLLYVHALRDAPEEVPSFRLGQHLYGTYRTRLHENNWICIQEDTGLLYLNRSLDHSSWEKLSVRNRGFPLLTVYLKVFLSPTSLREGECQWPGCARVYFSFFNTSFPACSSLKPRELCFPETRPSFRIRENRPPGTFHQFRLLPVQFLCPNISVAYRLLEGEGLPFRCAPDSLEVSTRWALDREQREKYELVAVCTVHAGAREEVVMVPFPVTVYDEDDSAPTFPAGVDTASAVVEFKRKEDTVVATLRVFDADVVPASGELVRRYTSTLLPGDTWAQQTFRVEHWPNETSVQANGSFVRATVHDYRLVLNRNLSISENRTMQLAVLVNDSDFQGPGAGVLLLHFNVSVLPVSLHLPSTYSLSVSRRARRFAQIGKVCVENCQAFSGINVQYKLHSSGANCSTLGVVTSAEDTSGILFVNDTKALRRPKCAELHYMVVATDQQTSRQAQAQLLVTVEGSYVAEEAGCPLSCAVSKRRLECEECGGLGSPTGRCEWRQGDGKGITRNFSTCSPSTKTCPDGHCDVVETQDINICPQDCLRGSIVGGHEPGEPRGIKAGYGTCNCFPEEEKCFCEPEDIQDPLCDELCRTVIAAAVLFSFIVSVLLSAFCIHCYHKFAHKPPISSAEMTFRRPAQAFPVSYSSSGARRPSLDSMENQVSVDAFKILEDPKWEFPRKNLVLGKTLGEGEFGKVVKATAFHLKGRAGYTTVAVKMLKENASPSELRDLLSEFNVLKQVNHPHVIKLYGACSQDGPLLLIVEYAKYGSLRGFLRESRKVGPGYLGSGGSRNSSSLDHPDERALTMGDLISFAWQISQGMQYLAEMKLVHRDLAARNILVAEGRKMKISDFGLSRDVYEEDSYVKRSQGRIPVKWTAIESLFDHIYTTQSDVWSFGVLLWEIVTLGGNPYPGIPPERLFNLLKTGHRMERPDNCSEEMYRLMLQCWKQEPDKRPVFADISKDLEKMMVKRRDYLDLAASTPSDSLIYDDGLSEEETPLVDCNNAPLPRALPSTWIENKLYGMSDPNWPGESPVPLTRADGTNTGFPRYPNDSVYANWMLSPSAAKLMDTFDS

Nc1cnc(N2CCc3cc(S(=O)(=O)Nc4c(F)cc(Cl)cc4F)cc(N4CCCC4=O)c32)nc1
inactive: residual activity [1] 69% | residual activity [2] 100% | residual activity [3] 97% | residual activity [4] 100% | inhibition [5] -4.87% | inhibition [6] -0.42% | residual activity [7] 96% | residual activity [8] 88% | residual activity [9] 80% | residual activity [10] 100% | residual activity [11] 92% | residual activity [12] 72% | residual activity [13] 100% | residual activity [14] 89% | residual activity [15] 98% | residual activity [16] 100% | residual activity [17] 100% | residual activity [18] 100% | residual activity [19] 100% | residual activity [20] 58% | inhibition [21] -3.82% | residual activity [22] 96% | residual activity [23] 100% | residual activity [24] 92% | residual activity [25] 100% | residual activity [26] 60% | residual activity [27] 99% | residual activity [28] 77% | residual activity [29] 90% | residual activity [30] 100% | residual activity [31] 100% | residual activity [32] 100% | residual activity [33] 96% | residual activity [34] 100% | residual activity [35] 69% | residual activity [36] 80% | residual activity [37] 100% | residual activity [38] 100% | residual activity [39] 100% | residual activity [40] 78% | residual activity [41] 100% | residual activity [42] 100% | residual activity [43] 89% | residual activity [44] 92% | residual activity [45] 100%

Cn1nc(C(F)(F)F)cc1-c1cnc(N2CCc3cc(S(=O)(=O)Nc4c(F)cc(Cl)cc4F)cc(N4CCCC4=O)c32)nc1 [TP-020]
inactive: residual activity [1] 100% | residual activity [2] 91% | residual activity [3] 70% | residual activity [4] 100% | inhibition [5] 7.89% | inhibition [6] -0.24% | residual activity [7] 96% | residual activity [8] 100% | residual activity [9] 73% | residual activity [10] 81% | residual activity [11] 75% | residual activity [12] 88% | residual activity [13] 100% | residual activity [14] 100% | residual activity [15] 82% | residual activity [16] 100% | residual activity [17] 80% | residual activity [18] 100% | residual activity [19] 85% | residual activity [20] 94% | inhibition [21] 9.13% | residual activity [22] 100% | residual activity [23] 100% | residual activity [24] 96% | residual activity [25] 78% | residual activity [26] 94% | residual activity [27] 93% | residual activity [28] 97% | residual activity [29] 95% | residual activity [30] 82% | residual activity [31] 100% | residual activity [32] 100% | residual activity [33] 90% | residual activity [34] 100% | residual activity [35] 94% | residual activity [36] 84% | residual activity [37] 100% | residual activity [38] 87% | residual activity [39] 87% | residual activity [40] 94% | residual activity [41] 100% | residual activity [42] 97% | residual activity [43] 89% | residual activity [44] 100% | residual activity [45] 100%
